Source: US20230293526A1, “METHOD FOR TREATING CANCER WITH A REVERSE TRANSCRIPTASE INHIBITOR” (PrimeFour Therapeutics, Inc., priority 2020, published 2023)

Tests used:
Assay in all cases: Cell proliferation Ex.3
Format in all cases: cell-based
NCI-H292 = conditions: Homo sapiens
BXPC3 = conditions: Homo sapiens, BXPC-3
SW620 = conditions: Homo sapiens, SW-620
CACO2 = conditions: Homo sapiens, Caco-2
HS729 = test system: HS729
MDAMB231 = conditions: Homo sapiens, MDA-MB-231
SU-DHL-6 = conditions: Homo sapiens
22RV1 = conditions: Homo sapiens
CAKI1 = conditions: Homo sapiens, CAKI-1
JEG3 = conditions: Homo sapiens, JEG-3
Outline: (§1)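 Luminescent ATP read-out (CellTiterGlo) after […] compound exposure at 37 °C. Plates sat 1 h at room temperature before reagent, and signal was read about an hour later. Data were normalised to high and low controls as percent viability.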

OVCAR4 = conditions: Homo sapiens, OVCAR-4
COLO678 = conditions: Homo sapiens, COLO-678
PC3 = conditions: Homo sapiens, PC-3
Outline: as §1

A2780 = conditions: Homo sapiens
SKMEL5 = conditions: Homo sapiens, SK-MEL-5
5637 = test system: 5637
A431 = conditions: Homo sapiens, A-431
PANC1 = conditions: Homo sapiens, PANC-1
HL-60 = conditions: Homo sapiens
SKOV3 = conditions: Homo sapiens, SK-OV-3
BT20 = conditions: Homo sapiens, BT-20
Outline: as §1

RDES = conditions: RD-ES
MT3 = conditions: MT-3
PLCPRF5 = conditions: Homo sapiens, PLC-PRF-5
L363 = conditions: Homo sapiens, L-363
MCF7 = conditions: Homo sapiens

IC50 (NCI-H292; NCI-H292, 72 h): > 10 µM | IC50 (NCI-H292; NCI-H292, 120 h): > 10 µM | IC50 (NCI-H292; NCI-H292, 168 h): > 10 µM | IC50 (BXPC3; BXPC3, 72 h): > 10 µM | IC50 (BXPC3; BXPC3, 120 h): 1.29 µM | IC50 (BXPC3; BXPC3, 168 h): 0.59 µM | IC50 (SW620; SW620, 72 h): > 10 µM | IC50 (SW620; SW620, 120 h): > 10 µM | IC50 (SW620; SW620, 168 h): > 10 µM | IC50 (CACO2; CACO2, 72 h): > 10 µM | IC50 (CACO2; CACO2, 120 h): > 10 µM | IC50 (CACO2; CACO2, 168 h): > 10 µM | IC50 (MDAMB231; MDAMB231, 72 h): > 10 µM | IC50 (MDAMB231; MDAMB231, 120 h): > 10 µM | IC50 (MDAMB231; MDAMB231, 168 h): > 10 µM | IC50 (SU-DHL-6; SU-DHL-6, 72 h): > 10 µM | IC50 (SU-DHL-6; SU-DHL-6, 120 h): 4.99 µM | IC50 (SU-DHL-6; SU-DHL-6, 168 h): 1.3 µM | IC50 (22RV1; 22Rv1, 72 h): 3.8 µM | IC50 (22RV1; 22Rv1, 120 h): 3.28 µM | IC50 (22RV1; 22Rv1, 168 h): 3.69 µM | IC50 (OVCAR4; OVCAR4, 72 h): > 10 µM | IC50 (OVCAR4; OVCAR4, 120 h): > 10 µM | IC50 (OVCAR4; OVCAR4, 168 h): > 10 µM | IC50 (COLO678; COLO678, 72 h): > 10 µM | IC50 (COLO678; COLO678, 120 h): > 10 µM | IC50 (COLO678; COLO678, 168 h): > 10 µM | IC50 (PC3; PC3, 72 h): > 10 µM | IC50 (PC3; PC3, 120 h): > 10 µM | IC50 (PC3; PC3, 168 h): > 10 µM | IC50 (A2780; A2780, 72 h): > 10 µM | IC50 (A2780; A2780, 120 h): > 10 µM | IC50 (A2780; A2780, 168 h): > 10 µM | IC50 (SKMEL5; SKMEL5, 72 h): > 10 µM | IC50 (SKMEL5; SKMEL5, 120 h): > 10 µM | IC50 (SKMEL5; SKMEL5, 168 h): > 10 µM | IC50 (A431; A431, 72 h): > 10 µM | IC50 (A431; A431, 120 h): 3.18 µM | IC50 (A431; A431, 168 h): 1.42 µM | IC50 (PANC1; PANC1, 72 h): > 10 µM | IC50 (PANC1; PANC1, 120 h): > 10 µM | IC50 (PANC1; PANC1, 168 h): > 10 µM | IC50 (HL-60; HL-60, 72 h): > 10 µM | IC50 (HL-60; HL-60, 120 h): > 10 µM | IC50 (HL-60; HL-60, 168 h): > 10 µM | IC50 (SKOV3; SKOV3, 72 h): > 10 µM | IC50 (SKOV3; SKOV3, 120 h): > 10 µM | IC50 (SKOV3; SKOV3, 168 h): > 10 µM | IC50 (BT20; BT20, 72 h): > 10 µM | IC50 (BT20; BT20, 120 h): > 10 µM | IC50 (BT20; BT20, 168 h): > 10 µM | IC50 (MCF7; MCF7, 72 h): > 10 µM | IC50 (MCF7; MCF7, 120 h): > 10 µM | IC50 (MCF7; MCF7, 168 h): > 10 µM
SMILES: C#C[C@]1(CO)O[C@@H](n2cc(F)c(N)nc2=O)C[C@@H]1O [compound 9]
IC50 (HS729; HS729, 72 h): > 10 µM | IC50 (HS729; HS729, 120 h): > 10 µM | IC50 (HS729; HS729, 168 h): > 10 µM | IC50 (CAKI1; CAKI1, 72 h): > 10 µM | IC50 (CAKI1; CAKI1, 120 h): > 10 µM | IC50 (CAKI1; CAKI1, 168 h): > 10 µM | IC50 (JEG3; JEG3, 72 h): > 10 µM | IC50 (JEG3; JEG3, 120 h): > 10 µM | IC50 (JEG3; JEG3, 168 h): > 10 µM | IC50 (5637; 5637, 72 h): > 10 µM | IC50 (5637; 5637, 120 h): > 10 µM | IC50 (5637; 5637, 168 h): > 10 µM | IC50 (RDES; 72 h): > 10 µM | IC50 (RDES; 120 h): > 10 µM | IC50 (RDES; 168 h): > 10 µM | IC50 (MT3; MT3, 72 h): > 10 µM | IC50 (MT3; MT3, 120 h): 3.04 µM | IC50 (MT3; MT3, 168 h): > 10 µM | IC50 (PLCPRF5; PLCPRF5, 72 h): > 10 µM | IC50 (PLCPRF5; PLCPRF5, 120 h): > 10 µM | IC50 (PLCPRF5; PLCPRF5, 168 h): > 10 µM | IC50 (L363; L363, 72 h): > 10 µM | IC50 (L363; L363, 120 h): > 10 µM | IC50 (L363; L363, 168 h): > 10 µM
